We go through three compounds from patent US5155215A, “Polychelating agents for image and spectral enhancement (and spectral shift)” (priority 1990, dated 1992).

For data set [1] the following is noted: precipitation at body pH; cited from earlier work.
The conditions of data set [2]: cited from earlier work.
Data set [3] can be described thus: In vitro T1 relaxation of water protons (IBM PC 20 Minispectrometer, 20 MHz). The format is physicochemical.
Method: Microspheres were suspended at a concentration of 1 mg/ml by brief sonification. Because albumin microspheres have a fast-release (surface) component of Gd:DTPA as well as a controlled-release (interior) component, the spheres were washed, resuspended, and diluted serially for testing.
Thus, it was not necessary to wash and resuspend the materials prior to NMR testing.
A short description of data set [4]: MR imaging and proton T1 relaxation times in rats (DEAE-dextran agents). The format is in vivo, Sprague-Dawley rats. The following applies: Gd 0.30 (polymer, dimeglumine) or 0.15 (microspheres) mmol/kg. The protocol: Test materials were injected intravenously into 500 gm Sprague-Dawley rats. at approximately 30 minutes, the rats were placed in the head coil of a 0.35 Tesla clinical imaging device (Diasonics Corp.), and T1-weighted images (using both a spin-echo pulse sequence at TR's of 0.5, 1.5 and 2.0, and an inversion recovery sequence) were obtained on image slices of 0.5 cm thickness taken through the liver and kidneys. T1 relaxation times were determined from the TR=0.5 and 2.0 data using area-averaging of signal intensities and a proprietary software program for calculations. At the completion of imaging, the rats were sacrificed by decapitation (exsanguination). Their livers, kidneys and spleens were excised, tested for in vitro correlations with the in vivo changes in proton T1 relaxation times and then placed in buffered formalin fixative for histopathologic evaluation.

Data set [5] in a line: Liver T1 decrease / liver image enhancement, effective dose. The format is in vivo, mice and rats. The following applies: 30 min.
Data set [6] relates to human brain tumors; renal tumors. The following applies: cited from earlier work.
Data set [7] is described as follows: Enhanced T1-weighted blood flow images in cardiac chambers. The format is in vivo, rats. The following applies: i.v., rat heart chambers.
Method: Gd:DTPA-dextran microspheres (at 0.03 mmoles Gd/kg) were injected i.v. at time zero into Sprayer-Dawley rats and images were obtained immediately and serially each 5 minutes×4 (spin-echo, multi-echo, TR=0.5 & 1.5).
For data set [8], the system named is 7777-strain Morris hepatoma. The data set is described as follows: In vivo NMR image enhancement of a primary liver tumor (hepatoma). The following applies: after injection.
Method: After two to three weeks the local tumors had reached an average diameter of 0.5 and 1.0 cm. The rats were then imaged both before and after i.v. injections of Gd-DTPA or microsphere Gd-DTPA. MR imaging was performed in a 30cm rf coil with a 0.35 Tesla, Diasonics clinical MRI system (as described above). Post-contrast images were obtained serially beginning immediately after injection and continuing for several hours thereafter.
Data set [9] can be described thus: T1 of freshly excised rat spleens after injection. The format is in vivo, Sprague-Dawley rats.
From the text: Post-contrast images were obtained serially beginning immediately after the i.v. injection of contrast agents and continuing for several hours thereafter.
The nature of data set [10]: In vivo NMR enhancement of normal rat tissues, image T1 and enhancement (0.35 Tesla Diasonics). On the set-up: species or system Sprague-Dawley rats. The source says:
Sprague-Dawley rats were imaged using a 0.35-Tesla, Diasonics clinical MR imaging system and a 30-cm rf coil. Three clinically relevant pulse sequences were used: 1) spin-echo with a TR of 0.5 seconds (for T1-weighted images), 2) inversion-recovery (IR) (for T1-weighted images), and 3) spin-echo with a TR of 2.0 seconds (for T2-weighted images). Diasonics software was used to calculate the area-averaged tissue intensities before and after injection of contrast agents. Dual pulse sequences (spin-echo, with TR's of 0.5 and 1.5 seconds or 1.0 and 2.0 seconds) were also used to calculate the in vivo T1 relaxation times. At the conclusion of imaging, the liver, spleen and kidneys were excised and their T1 (IR) and T2 (Carr-Purcell-Meiboom-Gill) relaxation times were determined at 37° C., using an IBM pC20 Minispectroneter. For these in vitro experiments, uninjected rats were used in place of preinjection controls.

Data set [11] is described as follows: Proton T1 relaxation times in mouse organs (DEAE-dextran agents). The format is in vivo, CBA mice. The protocol:
Test materials were injected i.v. into 25 gm CBA mice. At 30 min the mice were sacrificed by decapitation (exsanguination) and the excised livers and kidneys assessed for changes in proton T1 relaxation times (20 MHz; IR pulse sequence). Doses of test materials were made equivalent based on in vitro potency (ID50 analysis).

The conditions of data set [12]: cited from earlier work. The source holds these as a separate data set.
A short description of data set [13]: Whole-organ liver T1 after albumin microspheres. The format is in vivo, CBA mice. The following applies: 0.1 mmol/kg Gd, 30 min.
Method: Microspheres (Gd:DTPA:dimeglumine:albumin) were tested in vivo by injecting them intravenously into 25 gm CBA mice (2 animals per group), allowing 30 minutes for uptake and sequestration by liver Kupffer cells, sacrificing the mice, and testing the excised organs. […] Radioisotope was quantified in a standard gamma counter.
The T1-weighted proton relaxation times of mouse livers were quantified by determining the whole-organ T1 relaxation time in a 20 MHz NMR spectrometer.

As to `[Gd]` [Gd, gadolinium], the “Toxicity of the free form” value in [1] was “quite toxic”. For the same compound, the Paramagnetic dipole in [2] (Gd, seven unpaired 4f electrons) is on record as 7.9 Bohr magnetons.

Turning to `O=C(O)CN1CCN(CC(=O)O)CCN(CC(=O)O)CCN(CC(=O)O)CC1` [DOTA, 1,4,7,10-tetraazacyclododecane-N,N',N"-tetraacetic acid], in data set [2] (wide range of Larmor frequencies), the “Relaxivity relative to Gd-DTPA” value was “approximately 2 times greater”.

For `CNC[C@H](O)[C@@H](O)[C@H](O)[C@H](O)CO.CNC[C@H](O)[C@@H](O)[C@H](O)[C@H](O)CO.O=C([O-])CN(CCN(CC(=O)[O-])CC(=O)O)CCN(CC(=O)[O-])CC(=O)O.[Gd+3]` [Gd:DTPA dimeglumine], in data set [3] (Gd, read-out: ID50 as molar concentration of Gd), the IC50 amounted to 90 µM. The “ID50 (total weight)” value in [3] (T1 to 50% of phosphate-buffered saline) was determined as 84 µg/mL. Besides, the “Material concentration required to produce a 50% decrease in the T1 of water protons” value in data set [3] (total material) came out at 90 µg/mL. In addition, the “T1 (% of control), kidney, in vitro” value in [4] (excised kidney, control 492 msec) amounted to 25%. For the same compound, in [4] (excised liver, control 275 msec), the “T1 (% of control), liver, in vitro” value came to 88%. Besides, in data set [4] (excised spleen, control 464 msec), the “T1 (% of control), spleen, in vitro” value is 86%. The “T1 (% of control), kidney, in vivo” value in data set [4] (kidney, imaging) is 57%. In addition, the “T1 (% of control), liver, in vivo” value in data set [4] (liver, imaging) is recorded as 83%. Besides, the “Relaxivity at higher proton Larmor frequencies” value in data set [2] (typically 15 Mhz) is reported as “marked decrease in relaxivity”. The “Change in liver T1's at the usual 30-minute imaging interval” value in data set [5] is “minimal changes in liver T1's”. Further, the “Enhancement of renal tumors” value in data set [6] (human, in vivo) is “enhanced satisfactorily”. In addition, the “Enhancement of human brain tumors” value in data set [6] (preliminary clinical results) is listed as “almost all human brain tumors undergo significant enhancement”. Further, the “Enhancement of blood flow images” value in [7] is “almost completely ineffective”. Further, the “Time by which tumor contrast was significantly reduced” value in [8] was determined as 1.5 h. In addition, the “% Decrease in T1 of Spleen (35 min post vs. pre)” value in data set [9] came out at 14.4%. In addition, the “% Decrease in T1, kidney (30 min post vs. pre)” value in data set [10] (kidney, 30 min, image T1) amounted to 55.7%. Besides, the “Time after which all liver enhancement was lost” value in data set [10] (liver) came to 50 min. Also, in data set [10] (liver, 30 min, image T1), the “% Decrease in T1, liver (30 min post vs. pre)” value amounted to 24.6%. In data set [10] (visual inspection), the “Bone marrow image enhancement” value is “not Gd:DTPA dimeglumine”. Further, the “T1 (% of control), kidney” value in [11] (kidney, 30 min, 0.23 mmol/kg DEAE agents, 0.47 mmol/kg Gd:DTPA dimeglumine, control 385 msec) came to 24%. Besides, the “T1 (% of control), liver” value in data set [11] (liver, 30 min, 0.23 mmol/kg DEAE agents, 0.47 mmol/kg Gd:DTPA dimeglumine, control 330 msec) was found to be 83%. For the same compound, the “Effectiveness at decreasing the T1 of liver” value in [11] (mouse liver, very high doses) is “relatively ineffective”. Also, in data set [12] (Weinman et al.), the “Bloodstream clearance (1/2)” value was 20 min and the “Quantity cleared by the kidneys” value is given as more than 90%. In data set [12] (in vivo), the Imaging window result is on record as “ca. 30 minutes” and the “Number of optimal images after each injection” value is given as “ca. 2”. The “Liver T1, % of Control” value in data set [13] was found to be 98.5%. Further, the “Liver T1” value in data set [13] (saline 332) was determined as 327 ms.
